Reference: PubChem BioAssay (NCI)
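In this assay, cells in 96-well plates receive the compound at five concentrations for 48 hours. Endpoints are linearly interpolated between the surrounding concentrations. TGI: total growth inhibition.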

Assays:
Assay in all cases: NCI anticancer screen, dose series, 48 h
ACHN renal = test system: ACHN renal
MDA-MB-435 = test system: MDA-MB-435
EKVX NSCLC = test system: EKVX NSCLC
DU-145 prostate = test system: DU-145 prostate
KM12 colon = test system: KM12 colon
SK-MEL-5 melanoma = test system: SK-MEL-5 melanoma
NCI-H23 lung = test system: NCI-H23 lung
SF-539 CNS = test system: SF-539 CNS
COLO 205 colon = test system: COLO 205 colon
PC-3 prostate = test system: PC-3 prostate
NCI-H460 lung = test system: NCI-H460 lung
OVCAR-8 ovarian = test system: OVCAR-8 ovarian
HL-60(TB) leukemia = test system: HL-60(TB) leukemia
RXF 393 renal = test system: RXF 393 renal
SR leukemia = test system: SR leukemia
MDA-N = test system: MDA-N
SN12C renal = test system: SN12C renal
SK-MEL-28 melanoma = test system: SK-MEL-28 melanoma
M14 melanoma = test system: M14 melanoma
UO-31 renal = test system: UO-31 renal

## Nc1ccc2nc3n(c2c1)C(c1c(F)cccc1F)SC3 (stereo not given)
ACHN renal
  TGI: > 100 µM
MDA-MB-435
  TGI: > 100 µM
EKVX NSCLC
  TGI: > 100 µM
DU-145 prostate
  TGI: > 100 µM
KM12 colon
  TGI: > 100 µM
SK-MEL-5 melanoma
  TGI: > 100 µM
NCI-H23 lung
  TGI: > 100 µM
SF-539 CNS
  TGI: > 100 µM
COLO 205 colon
  TGI: > 100 µM
PC-3 prostate
  TGI: > 100 µM
NCI-H460 lung
  TGI: > 100 µM
OVCAR-8 ovarian
  TGI: > 100 µM
HL-60(TB) leukemia
  TGI: > 100 µM
RXF 393 renal
  TGI: > 100 µM
SR leukemia
  TGI: > 100 µM
MDA-N
  TGI: > 100 µM
SN12C renal
  TGI: > 100 µM
SK-MEL-28 melanoma
  TGI: > 100 µM
M14 melanoma
  TGI: > 100 µM
UO-31 renal
  TGI: > 100 µM

## CCOP(=O)(OCC)/C(=C\n1ccc(=O)[nH]c1=S)C(=O)OC
ACHN renal
  TGI: > 100 µM
MDA-MB-435
  TGI: > 100 µM
EKVX NSCLC
  TGI: > 100 µM
DU-145 prostate
  TGI: > 100 µM
KM12 colon
  TGI: > 100 µM
SK-MEL-5 melanoma
  TGI: > 100 µM
NCI-H23 lung
  TGI: > 100 µM
SF-539 CNS
  TGI: > 100 µM
COLO 205 colon
  TGI: > 100 µM
PC-3 prostate
  TGI: > 100 µM
NCI-H460 lung
  TGI: > 100 µM
OVCAR-8 ovarian
  TGI: > 100 µM
HL-60(TB) leukemia
  TGI: > 100 µM
RXF 393 renal
  TGI: > 100 µM
SR leukemia
  TGI: > 100 µM
MDA-N
  TGI: > 100 µM
SN12C renal
  TGI: > 100 µM
SK-MEL-28 melanoma
  TGI: > 100 µM
M14 melanoma
  TGI: > 100 µM
UO-31 renal
  TGI: > 100 µM

## CCCC(=O)Oc1c2ccsc2c(OC(=O)CCC)c2ccsc12
ACHN renal
  TGI: 9.99 µM
MDA-MB-435
  TGI: 0.586 µM
EKVX NSCLC
  TGI: 5.2 µM
DU-145 prostate
  TGI: 1.47 µM
KM12 colon
  TGI: 13.8 µM
NCI-H23 lung
  TGI: 3.64 µM
SF-539 CNS
  TGI: 2.16 µM
COLO 205 colon
  TGI: 19.7 µM
PC-3 prostate
  TGI: 3.52 µM
NCI-H460 lung
  TGI: 3.12 µM
OVCAR-8 ovarian
  TGI: 2.02 µM
HL-60(TB) leukemia
  TGI: 3.79 µM
RXF 393 renal
  TGI: 5.86 µM
SR leukemia
  TGI: 7.32 µM
MDA-N
  TGI: 0.725 µM
SN12C renal
  TGI: 2.98 µM
SK-MEL-28 melanoma
  TGI: 1.59 µM
M14 melanoma
  TGI: > 12.8 µM
UO-31 renal
  TGI: 5.11 µM

## Cc1ccc2c(ccc3ncc(CNc4ccc(NS(C)(=O)=O)cc4)c32)[nH]1
ACHN renal
  TGI: > 100 µM
MDA-MB-435
  TGI: 31.5 µM
EKVX NSCLC
  TGI: > 100 µM
DU-145 prostate
  TGI: 42.6 µM
KM12 colon
  TGI: 36.6 µM
SK-MEL-5 melanoma
  TGI: 39.4 µM
NCI-H23 lung
  TGI: 58.7 µM
SF-539 CNS
  TGI: 50.5 µM
COLO 205 colon
  TGI: 94.4 µM
PC-3 prostate
  TGI: 68.7 µM
NCI-H460 lung
  TGI: 35.4 µM
OVCAR-8 ovarian
  TGI: 81.1 µM
HL-60(TB) leukemia
  TGI: 65.3 µM
RXF 393 renal
  TGI: 21.7 µM
SR leukemia
  TGI: 50.8 µM
MDA-N
  TGI: 32.1 µM
SN12C renal
  TGI: 92.5 µM
SK-MEL-28 melanoma
  TGI: 53.7 µM
M14 melanoma
  TGI: 33.1 µM
UO-31 renal
  TGI: 74.7 µM

## CC(C)(C)n1[nH]c(=O)n(C(C)(C)C)c1=O
ACHN renal
  TGI: > 100 µM
MDA-MB-435
  TGI: > 100 µM
DU-145 prostate
  TGI: > 100 µM
KM12 colon
  TGI: > 100 µM
SK-MEL-5 melanoma
  TGI: > 100 µM
NCI-H23 lung
  TGI: > 100 µM
SF-539 CNS
  TGI: > 100 µM
COLO 205 colon
  TGI: > 100 µM
PC-3 prostate
  TGI: > 100 µM
NCI-H460 lung
  TGI: > 100 µM
HL-60(TB) leukemia
  TGI: > 100 µM
RXF 393 renal
  TGI: > 100 µM
SR leukemia
  TGI: > 100 µM
MDA-N
  TGI: > 100 µM
SN12C renal
  TGI: > 100 µM
SK-MEL-28 melanoma
  TGI: > 100 µM
M14 melanoma
  TGI: > 100 µM
UO-31 renal
  TGI: > 100 µM

## CC(C)(C)OC(=O)NCC(c1c[nH]c2cc(Br)ccc12)c1c[nH]c2cc(Br)ccc12
ACHN renal
  TGI: 30.3 µM
MDA-MB-435
  TGI: 31.9 µM
EKVX NSCLC
  TGI: 32.8 µM
DU-145 prostate
  TGI: 31.7 µM
KM12 colon
  TGI: 37.3 µM
SK-MEL-5 melanoma
  TGI: 34.2 µM
NCI-H23 lung
  TGI: 34.2 µM
SF-539 CNS
  TGI: 38 µM
COLO 205 colon
  TGI: 34.7 µM
PC-3 prostate
  TGI: 31.1 µM
NCI-H460 lung
  TGI: 48.7 µM
OVCAR-8 ovarian
  TGI: 36.5 µM
HL-60(TB) leukemia
  TGI: 64.2 µM
RXF 393 renal
  TGI: 32 µM
SR leukemia
  TGI: > 100 µM
MDA-N
  TGI: 34.4 µM
SN12C renal
  TGI: 33.6 µM
SK-MEL-28 melanoma
  TGI: 83.4 µM
M14 melanoma
  TGI: 37.3 µM
UO-31 renal
  TGI: 34.5 µM

## Cc1cc(C)n(CN(CCCCO)Cn2nc(C)cc2C)n1
ACHN renal
  TGI: 39.4 µM
MDA-MB-435
  TGI: 38.4 µM
EKVX NSCLC
  TGI: 76.3 µM
DU-145 prostate
  TGI: 53.6 µM
KM12 colon
  TGI: 60.6 µM
SK-MEL-5 melanoma
  TGI: > 100 µM
NCI-H23 lung
  TGI: 50.6 µM
SF-539 CNS
  TGI: 36.2 µM
COLO 205 colon
  TGI: 31.7 µM
PC-3 prostate
  TGI: 57.7 µM
NCI-H460 lung
  TGI: > 100 µM
OVCAR-8 ovarian
  TGI: 41.7 µM
HL-60(TB) leukemia
  TGI: 79 µM
RXF 393 renal
  TGI: 39 µM
SR leukemia
  TGI: 28.7 µM
MDA-N
  TGI: 35.1 µM
SN12C renal
  TGI: 67 µM
SK-MEL-28 melanoma
  TGI: 39.3 µM
M14 melanoma
  TGI: 33.9 µM
UO-31 renal
  TGI: 69.1 µM

## O=S(=O)(O)c1ccc(N=Nc2ccc(N=Nc3c(O)ccc4ccc(S(=O)(=O)O)cc34)cc2)cc1
ACHN renal
  TGI: > 100 µM
MDA-MB-435
  TGI: > 100 µM
EKVX NSCLC
  TGI: > 100 µM
DU-145 prostate
  TGI: > 100 µM
KM12 colon
  TGI: > 100 µM
SK-MEL-5 melanoma
  TGI: > 100 µM
NCI-H23 lung
  TGI: > 100 µM
SF-539 CNS
  TGI: > 100 µM
COLO 205 colon
  TGI: > 100 µM
PC-3 prostate
  TGI: > 100 µM
NCI-H460 lung
  TGI: > 100 µM
OVCAR-8 ovarian
  TGI: > 100 µM
HL-60(TB) leukemia
  TGI: > 100 µM
RXF 393 renal
  TGI: > 100 µM
SR leukemia
  TGI: > 100 µM
MDA-N
  TGI: > 100 µM
SN12C renal
  TGI: > 100 µM
SK-MEL-28 melanoma
  TGI: > 100 µM
M14 melanoma
  TGI: > 100 µM
UO-31 renal
  TGI: > 100 µM

## CCOC(=O)C1=NN(c2ccc(C)cc2)C2(c3ccccc3)C=C(c3ccccc3)N(C)CCN12 (stereo not given)
ACHN renal
  TGI: > 100 µM
MDA-MB-435
  TGI: > 100 µM
EKVX NSCLC
  TGI: > 100 µM
DU-145 prostate
  TGI: > 100 µM
KM12 colon
  TGI: > 100 µM
SK-MEL-5 melanoma
  TGI: > 100 µM
NCI-H23 lung
  TGI: > 100 µM
SF-539 CNS
  TGI: > 100 µM
COLO 205 colon
  TGI: > 100 µM
PC-3 prostate
  TGI: > 100 µM
OVCAR-8 ovarian
  TGI: > 100 µM
HL-60(TB) leukemia
  TGI: > 100 µM
RXF 393 renal
  TGI: > 100 µM
SR leukemia
  TGI: > 100 µM
MDA-N
  TGI: > 100 µM
SN12C renal
  TGI: > 100 µM
SK-MEL-28 melanoma
  TGI: > 100 µM
M14 melanoma
  TGI: > 100 µM
UO-31 renal
  TGI: > 100 µM

## Cc1cn(CC2(CO)CCC2)c(=O)[nH]c1=O
ACHN renal
  TGI: > 100 µM
MDA-MB-435
  TGI: > 100 µM
EKVX NSCLC
  TGI: > 100 µM
DU-145 prostate
  TGI: > 100 µM
KM12 colon
  TGI: > 100 µM
SK-MEL-5 melanoma
  TGI: > 100 µM
NCI-H23 lung
  TGI: > 100 µM
SF-539 CNS
  TGI: > 100 µM
COLO 205 colon
  TGI: > 100 µM
PC-3 prostate
  TGI: > 100 µM
NCI-H460 lung
  TGI: > 100 µM
OVCAR-8 ovarian
  TGI: > 100 µM
HL-60(TB) leukemia
  TGI: > 100 µM
RXF 393 renal
  TGI: > 100 µM
SR leukemia
  TGI: > 100 µM
MDA-N
  TGI: > 100 µM
SN12C renal
  TGI: > 100 µM
SK-MEL-28 melanoma
  TGI: > 100 µM
UO-31 renal
  TGI: > 100 µM

## Nc1nncc2n[nH]nc12
ACHN renal
  TGI: > 100 µM
MDA-MB-435
  TGI: > 100 µM
EKVX NSCLC
  TGI: > 100 µM
DU-145 prostate
  TGI: > 100 µM
KM12 colon
  TGI: > 100 µM
SK-MEL-5 melanoma
  TGI: 30.7 µM
NCI-H23 lung
  TGI: > 100 µM
SF-539 CNS
  TGI: > 100 µM
COLO 205 colon
  TGI: > 100 µM
PC-3 prostate
  TGI: > 100 µM
NCI-H460 lung
  TGI: > 100 µM
OVCAR-8 ovarian
  TGI: > 100 µM
HL-60(TB) leukemia
  TGI: > 100 µM
RXF 393 renal
  TGI: > 100 µM
SR leukemia
  TGI: > 100 µM
MDA-N
  TGI: > 100 µM
SN12C renal
  TGI: > 100 µM
SK-MEL-28 melanoma
  TGI: > 100 µM
M14 melanoma
  TGI: > 100 µM
UO-31 renal
  TGI: > 100 µM

## Cc1ccc(F)c2[nH]c(-c3ccccc3)cc(=O)c12
ACHN renal
  TGI: > 100 µM
MDA-MB-435
  TGI: > 100 µM
EKVX NSCLC
  TGI: > 100 µM
DU-145 prostate
  TGI: > 100 µM
KM12 colon
  TGI: > 100 µM
SK-MEL-5 melanoma
  TGI: 14.9 µM
NCI-H23 lung
  TGI: > 65.8 µM
SF-539 CNS
  TGI: 28.5 µM
COLO 205 colon
  TGI: 24.9 µM
PC-3 prostate
  TGI: > 100 µM
NCI-H460 lung
  TGI: > 100 µM
OVCAR-8 ovarian
  TGI: > 100 µM
HL-60(TB) leukemia
  TGI: > 100 µM
RXF 393 renal
  TGI: 21.5 µM
SR leukemia
  TGI: > 100 µM
MDA-N
  TGI: > 100 µM
SN12C renal
  TGI: > 100 µM
SK-MEL-28 melanoma
  TGI: > 40.1 µM
M14 melanoma
  TGI: > 100 µM
UO-31 renal
  TGI: > 50.1 µM
